Measurements reported in patent US12258327B2, “5-membered heteroaryl-containing aminopyridine compounds as EGFR inhibitors” (YUHAN CORPORATION, priority 2021, dated 2025).
Where two headings read alike, the source gives them in different places.

Tests used:
EGFR del19/C797S = EGFR del19/C797S (Homo sapiens, UniProt P00533, C797S/DEL746-750); test: Biochemical EGFR kinase assay (Lance Ultra TR-FRET), double mutant del19/C797S
Summary of the method: (§1)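 Enzyme reactions lasted 1 hour at room temperature with test compounds between 0.003 and 10 μM, followed by 10 mM EDTA quench.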

EGFR L858R/T790M/C797S = EGFR L858R/T790M/C797S (Homo sapiens, UniProt P00533, C797S/L858R/T790M); test: Biochemical EGFR kinase assay (Lance Ultra TR-FRET), triple mutant L858R/T790M/C797S
Summary of the method: as §1

EGFR del19/T790M/C797S = EGFR del19/T790M/C797S (Homo sapiens, UniProt P00533, C797S/DEL746-750/T790M); test: Biochemical EGFR kinase assay (Lance Ultra TR-FRET), triple mutant del19/T790M/C797S
Summary of the method: as §1

EGFR L858R/C797S = EGFR L858R/C797S (Homo sapiens, UniProt P00533, C797S/L858R); test: Biochemical EGFR kinase assay (Lance Ultra TR-FRET), double mutant L858R/C797S
Summary of the method: as §1

EGFR wildtype (WT) = EGFR wildtype (WT) (Homo sapiens, UniProt P00533); test: Biochemical EGFR kinase assay (Lance Ultra TR-FRET), wildtype
Summary of the method: as §1

[1] = Km ATP, read-out: IC50 del19/C797S (nM) Km ATP
[2] = Km ATP, read-out: IC50 L858R/T790M/C797S (nM) Km ATP
[3] = Km ATP, read-out: IC50 del19/T790M/C797S (nM) Km ATP
[4] = Km ATP, read-out: IC50 L858R/C797S (nM) Km ATP
[5] = Km ATP, read-out: IC50 WT (nM) Km ATP
[6] = IC50 del19/C797S (nM) 100 μM ATP, 100 μM ATP
[7] = IC50 L858R/T790M/C797S (nM) 100 μM ATP, 100 μM ATP
[8] = IC50 del19/T790M/C797S (nM) 100 μM ATP, 100 μM ATP
[9] = IC50 L858R/C797S (nM) 100 μM ATP, 100 μM ATP
[10] = IC50 WT (nM) 100 μM ATP, 100 μM ATP
[11] = Km ATP, read-out: IC50 del19/C797S, Km ATP
[12] = IC50 L858R/T790M/C797S, 100 μM ATP
[13] = Km ATP, read-out: IC50 L858R/T790M/C797S, Km ATP
[14] = IC50 del19/T790M/C797S, 100 μM ATP
[15] = Km ATP, read-out: IC50 del19/T790M/C797S, Km ATP
[16] = Km ATP, read-out: IC50 L858R/C797S, Km ATP
[17] = Km ATP, read-out: IC50 WT, Km ATP

EGFR L858R/T790M/C797S, sequence (P00533 25-1210 T790M/C797S/L858R): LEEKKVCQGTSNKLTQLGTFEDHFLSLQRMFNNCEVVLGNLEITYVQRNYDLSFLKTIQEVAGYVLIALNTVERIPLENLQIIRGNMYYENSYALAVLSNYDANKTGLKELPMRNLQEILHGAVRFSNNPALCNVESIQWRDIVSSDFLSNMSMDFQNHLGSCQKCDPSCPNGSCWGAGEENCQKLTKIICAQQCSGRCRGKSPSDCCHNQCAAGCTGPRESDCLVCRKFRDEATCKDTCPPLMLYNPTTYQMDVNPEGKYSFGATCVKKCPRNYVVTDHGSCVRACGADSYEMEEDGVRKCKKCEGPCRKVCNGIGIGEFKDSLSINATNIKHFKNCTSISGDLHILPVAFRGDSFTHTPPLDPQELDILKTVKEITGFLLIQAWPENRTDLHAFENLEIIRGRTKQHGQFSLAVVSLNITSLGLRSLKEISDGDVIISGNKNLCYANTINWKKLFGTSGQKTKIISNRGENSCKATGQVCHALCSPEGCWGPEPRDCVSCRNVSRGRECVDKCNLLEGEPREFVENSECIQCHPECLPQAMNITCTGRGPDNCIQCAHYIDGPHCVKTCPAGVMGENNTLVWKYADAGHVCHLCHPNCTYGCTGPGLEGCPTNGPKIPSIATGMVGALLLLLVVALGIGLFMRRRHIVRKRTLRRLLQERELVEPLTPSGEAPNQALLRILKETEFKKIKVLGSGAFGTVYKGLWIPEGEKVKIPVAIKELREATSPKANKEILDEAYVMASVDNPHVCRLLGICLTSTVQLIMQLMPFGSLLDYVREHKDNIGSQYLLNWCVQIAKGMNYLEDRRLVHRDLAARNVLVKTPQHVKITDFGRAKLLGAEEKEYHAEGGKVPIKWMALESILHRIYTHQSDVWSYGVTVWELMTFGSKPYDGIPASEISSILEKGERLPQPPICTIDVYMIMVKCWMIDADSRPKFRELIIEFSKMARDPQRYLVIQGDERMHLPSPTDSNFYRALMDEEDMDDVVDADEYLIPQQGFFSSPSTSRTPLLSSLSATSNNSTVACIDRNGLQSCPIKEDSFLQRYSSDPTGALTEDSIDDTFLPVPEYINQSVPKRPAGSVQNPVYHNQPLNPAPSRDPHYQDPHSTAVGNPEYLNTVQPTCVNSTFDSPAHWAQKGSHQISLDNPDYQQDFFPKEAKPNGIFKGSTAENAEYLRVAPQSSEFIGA
EGFR wildtype (WT), sequence (P00533 25-1210): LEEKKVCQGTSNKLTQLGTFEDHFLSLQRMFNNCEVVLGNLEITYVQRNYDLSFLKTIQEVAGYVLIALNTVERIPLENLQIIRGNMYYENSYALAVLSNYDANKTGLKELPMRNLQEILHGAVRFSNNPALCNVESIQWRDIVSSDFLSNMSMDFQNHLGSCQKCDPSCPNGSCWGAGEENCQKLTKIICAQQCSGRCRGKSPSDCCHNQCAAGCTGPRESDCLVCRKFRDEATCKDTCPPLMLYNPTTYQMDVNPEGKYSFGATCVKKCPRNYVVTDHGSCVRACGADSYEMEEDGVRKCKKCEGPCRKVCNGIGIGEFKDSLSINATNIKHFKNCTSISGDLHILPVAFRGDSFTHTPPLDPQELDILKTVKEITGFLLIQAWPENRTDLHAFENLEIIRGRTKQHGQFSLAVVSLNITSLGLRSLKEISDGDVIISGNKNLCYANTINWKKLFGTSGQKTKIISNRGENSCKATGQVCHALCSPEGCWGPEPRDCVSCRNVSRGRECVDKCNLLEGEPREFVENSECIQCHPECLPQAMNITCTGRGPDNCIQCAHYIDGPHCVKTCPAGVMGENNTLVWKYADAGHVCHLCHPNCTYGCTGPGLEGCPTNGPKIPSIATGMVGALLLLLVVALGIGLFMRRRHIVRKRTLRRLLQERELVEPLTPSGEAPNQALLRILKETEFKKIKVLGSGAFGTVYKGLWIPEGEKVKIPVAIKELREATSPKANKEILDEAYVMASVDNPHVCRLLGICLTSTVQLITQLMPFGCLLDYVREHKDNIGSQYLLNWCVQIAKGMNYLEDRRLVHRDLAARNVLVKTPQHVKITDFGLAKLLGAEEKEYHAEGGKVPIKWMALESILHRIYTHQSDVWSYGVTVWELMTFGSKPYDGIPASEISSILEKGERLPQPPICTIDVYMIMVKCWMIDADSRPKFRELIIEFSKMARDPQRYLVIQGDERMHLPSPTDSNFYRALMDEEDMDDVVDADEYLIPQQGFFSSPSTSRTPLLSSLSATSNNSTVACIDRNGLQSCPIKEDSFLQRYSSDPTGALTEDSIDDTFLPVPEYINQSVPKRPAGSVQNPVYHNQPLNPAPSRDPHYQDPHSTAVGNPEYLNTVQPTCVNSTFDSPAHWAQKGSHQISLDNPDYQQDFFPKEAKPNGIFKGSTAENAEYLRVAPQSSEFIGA
EGFR del19/C797S, sequence (P00533 with tags, fused parts or gaps DEL746-750/C797S): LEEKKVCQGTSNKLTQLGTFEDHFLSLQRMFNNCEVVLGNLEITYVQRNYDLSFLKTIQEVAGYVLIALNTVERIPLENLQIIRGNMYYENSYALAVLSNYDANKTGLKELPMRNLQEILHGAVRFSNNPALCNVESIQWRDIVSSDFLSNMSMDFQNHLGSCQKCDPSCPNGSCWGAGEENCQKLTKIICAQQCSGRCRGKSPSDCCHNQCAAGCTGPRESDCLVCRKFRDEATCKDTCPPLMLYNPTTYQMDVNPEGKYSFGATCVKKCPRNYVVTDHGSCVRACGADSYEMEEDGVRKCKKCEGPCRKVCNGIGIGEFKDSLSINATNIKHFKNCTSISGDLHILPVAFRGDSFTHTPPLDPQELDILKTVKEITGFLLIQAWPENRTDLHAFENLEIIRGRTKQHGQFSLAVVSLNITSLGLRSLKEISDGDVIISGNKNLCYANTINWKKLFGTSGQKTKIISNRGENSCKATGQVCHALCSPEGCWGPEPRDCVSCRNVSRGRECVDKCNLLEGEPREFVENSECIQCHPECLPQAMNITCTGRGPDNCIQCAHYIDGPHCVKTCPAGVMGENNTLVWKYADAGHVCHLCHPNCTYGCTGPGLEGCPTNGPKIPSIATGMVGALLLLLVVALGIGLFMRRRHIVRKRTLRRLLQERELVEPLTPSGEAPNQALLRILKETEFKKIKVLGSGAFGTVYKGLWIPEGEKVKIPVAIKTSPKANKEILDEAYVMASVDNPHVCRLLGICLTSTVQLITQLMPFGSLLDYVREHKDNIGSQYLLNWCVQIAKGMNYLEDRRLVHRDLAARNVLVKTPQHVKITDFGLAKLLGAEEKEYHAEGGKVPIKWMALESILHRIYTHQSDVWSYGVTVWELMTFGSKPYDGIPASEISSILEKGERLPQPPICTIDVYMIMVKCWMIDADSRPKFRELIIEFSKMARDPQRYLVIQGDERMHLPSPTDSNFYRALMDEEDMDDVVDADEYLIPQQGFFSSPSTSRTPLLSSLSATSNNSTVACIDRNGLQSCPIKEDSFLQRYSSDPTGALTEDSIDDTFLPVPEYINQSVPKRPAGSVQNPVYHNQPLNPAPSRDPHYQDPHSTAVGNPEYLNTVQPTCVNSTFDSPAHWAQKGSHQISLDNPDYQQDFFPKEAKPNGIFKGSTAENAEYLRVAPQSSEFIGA
EGFR del19/T790M/C797S, sequence (P00533 with tags, fused parts or gaps DEL746-750/T790M/C797S): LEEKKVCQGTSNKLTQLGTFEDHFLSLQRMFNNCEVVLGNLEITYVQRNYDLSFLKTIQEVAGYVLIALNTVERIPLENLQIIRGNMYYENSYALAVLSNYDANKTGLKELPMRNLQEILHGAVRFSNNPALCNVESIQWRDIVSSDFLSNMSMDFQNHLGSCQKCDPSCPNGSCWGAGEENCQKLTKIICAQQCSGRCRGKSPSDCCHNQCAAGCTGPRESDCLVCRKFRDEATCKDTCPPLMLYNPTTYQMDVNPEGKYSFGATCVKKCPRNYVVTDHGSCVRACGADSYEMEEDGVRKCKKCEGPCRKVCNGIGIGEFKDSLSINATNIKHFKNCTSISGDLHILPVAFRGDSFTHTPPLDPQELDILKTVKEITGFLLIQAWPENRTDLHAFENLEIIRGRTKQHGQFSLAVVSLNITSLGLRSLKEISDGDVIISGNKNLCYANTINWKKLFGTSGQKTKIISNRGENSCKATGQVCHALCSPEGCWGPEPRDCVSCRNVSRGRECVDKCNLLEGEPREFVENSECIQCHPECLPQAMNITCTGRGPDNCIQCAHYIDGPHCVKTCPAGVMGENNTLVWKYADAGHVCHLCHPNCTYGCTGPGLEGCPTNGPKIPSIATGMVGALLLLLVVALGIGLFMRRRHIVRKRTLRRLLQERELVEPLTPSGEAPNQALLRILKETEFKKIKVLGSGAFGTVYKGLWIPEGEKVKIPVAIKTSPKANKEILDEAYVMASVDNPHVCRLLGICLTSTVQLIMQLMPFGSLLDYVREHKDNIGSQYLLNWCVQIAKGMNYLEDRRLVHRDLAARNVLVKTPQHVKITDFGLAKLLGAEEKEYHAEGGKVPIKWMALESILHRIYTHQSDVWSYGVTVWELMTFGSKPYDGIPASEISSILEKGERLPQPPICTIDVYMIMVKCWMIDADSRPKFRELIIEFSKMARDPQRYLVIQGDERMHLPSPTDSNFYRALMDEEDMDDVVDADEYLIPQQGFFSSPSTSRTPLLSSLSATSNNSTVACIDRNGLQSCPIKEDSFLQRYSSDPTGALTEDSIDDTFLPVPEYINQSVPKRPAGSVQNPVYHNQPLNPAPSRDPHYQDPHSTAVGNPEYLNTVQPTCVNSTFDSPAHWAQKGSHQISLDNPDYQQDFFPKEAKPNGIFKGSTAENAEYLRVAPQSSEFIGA

Compound	IC50 (EGFR del19/C797S; [1])	IC50 (EGFR L858R/T790M/C797S; [2])	IC50 (EGFR del19/T790M/C797S; [3])	IC50 (EGFR L858R/C797S; [4])	IC50 (EGFR wildtype (WT); [5])	IC50 (EGFR del19/C797S; [6])	IC50 (EGFR L858R/T790M/C797S; [7])	IC50 (EGFR del19/T790M/C797S; [8])	IC50 (EGFR L858R/C797S; [9])	IC50 (EGFR wildtype (WT); [10])	IC50 (EGFR del19/C797S; IC50 del19/C797S, 100 μM ATP)	IC50 (EGFR del19/C797S; [11])	IC50 (EGFR L858R/T790M/C797S; [12])	IC50 (EGFR L858R/T790M/C797S; [13])	IC50 (EGFR del19/T790M/C797S; [14])	IC50 (EGFR del19/T790M/C797S; [15])	IC50 (EGFR L858R/C797S; IC50 L858R/C797S, 100 μM ATP)	IC50 (EGFR L858R/C797S; [16])	IC50 (EGFR wildtype (WT); IC50 WT, 100 μM ATP)	IC50 (EGFR wildtype (WT); [17])
FC(F)Cn1cc(-c2nccc(Nc3cc(N[C@H]4CC[C@@H](F)CC4)c(-c4ccn(C(F)F)n4)cn3)n2)cn1 [Example 161, N^2-(2-(1-(2,2-Difluoroethyl)-1H-pyrazol-4-yl)pyrimidin-4-yl)-5-(1-(difluoromethyl)-1H-pyrazol-3-yl)-N^4-((1s,4s)-4-fluorocyclohexyl)pyridine-2,4-diamine]	276 nM	2.4 nM	3.2 nM	60.6 nM	640 nM															
CC(C)(O)[C@H]1CC[C@@H](Nc2cc(Nc3ccnc(-c4cnn(S(=O)(=O)C5CC5)c4)n3)ncc2-c2ccn(CC(F)(F)F)n2)CC1 [Example 265, 2-((1s,4s)-4-((2-((2-(1-(Cyclopropylsulfonyl)-1H-pyrazol-4-yl)pyrimidin-4-yl)amino)-5-(1-(2,2,2-trifluoroethyl)-1H-pyrazol-3-yl)pyridin-4-yl)amino)cyclohexyl)propan-2-ol]	11.8 nM			6.6 nM	86.8 nM	12.2 nM	7.4 nM	5.4 nM	187 nM	> 10000 nM										
O=S(=O)(C1CC1)n1cc(-c2nccc(Nc3cc(NC[C@H]4CC[C@@H](O)C4)c(-c4ccn(CC(F)(F)F)n4)cn3)n2)cn1 [Example 268, (1R,3S)-3-(((2-((2-(1-(Cyclopropylsulfonyl)-1H-pyrazol-4-yl)pyrimidin-4-yl)amino)-5-(1-(2,2,2-trifluoroethyl)-1H-pyrazol-3-yl)pyridin-4-yl)amino)methyl)cyclopentan-1-ol]	7.6 nM	0.3 nM	2.5 nM	3.2 nM	74.4 nM	200 nM	0.6 nM	0.6 nM	10.7 nM	> 10000 nM										
Cn1nc(-c2cnc(Nc3ccnc(N4CCC(O)C(F)(F)C4)n3)cc2NC2CCC(C)(O)CC2)cc1C(F)(F)F (stereo not drawn) [Example 353, 3,3-Difluoro-1-(4-((4-(((1s,4s)-4-hydroxy-4-methylcyclohexyl)amino)-5-(1-methyl-5-(trifluoromethyl)-1H-pyrazol-3-yl)pyridin-2-yl)amino)pyrimidin-2-yl)piperidin-4-ol]											252 nM	133 nM	0.8 nM	0.3 nM	0.9 nM	0.7 nM	275 nM	15.7 nM	> 10000 nM	175 nM
CN(C)CCCn1ccc(-c2cnc(Nc3ccnc(-c4cnn(S(=O)(=O)C5CC5)c4)n3)cc2N[C@H]2CC[C@@](C)(O)CC2)n1 [Example 288, (1s,4s)-4-((2-((2-(1-(Cyclopropylsulfonyl)-1H-pyrazol-4-yl)pyrimidin-4-yl)amino)-5-(1-(3-(dimethylamino)propyl)-1H-pyrazol-3-yl)pyridin-4-yl)amino)-1-methylcyclohexan-1-ol]						0.2 nM	0.2 nM	0.2 nM	0.4 nM	133 nM										
O=S(=O)(C1CC1)n1cc(-c2nccc(Nc3cc(N[C@H]4CC[C@@H](O)CC4)c(-c4ccco4)cn3)n2)cn1 [Example 83, (1s,4s)-4-((2-((2-(1-(Cyclopropylsulfonyl)-1H-pyrazol-4-yl)pyrimidin-4-yl)amino)-5-(furan-2-yl)pyridin-4-yl)amino)cyclohexan-1-ol]	0.8 nM	0.3 nM	0.3 nM	0.7 nM	8.6 nM	1.9 nM	0.7 nM	0.6 nM	18 nM	> 10000 nM										

Further lines, results first:

IC50 (EGFR del19/C797S; [1])	IC50 (EGFR L858R/T790M/C797S; [2])	IC50 (EGFR del19/T790M/C797S; [3])	IC50 (EGFR L858R/C797S; [4])	IC50 (EGFR wildtype (WT); [5])	IC50 (EGFR del19/C797S; [6])	IC50 (EGFR L858R/T790M/C797S; [7])	IC50 (EGFR del19/T790M/C797S; [8])	IC50 (EGFR L858R/C797S; [9])	IC50 (EGFR wildtype (WT); [10])	IC50 (EGFR del19/C797S; IC50 del19/C797S, 100 μM ATP)	IC50 (EGFR del19/C797S; [11])	IC50 (EGFR L858R/T790M/C797S; [12])	IC50 (EGFR L858R/T790M/C797S; [13])	IC50 (EGFR del19/T790M/C797S; [14])	IC50 (EGFR del19/T790M/C797S; [15])	IC50 (EGFR L858R/C797S; IC50 L858R/C797S, 100 μM ATP)	IC50 (EGFR L858R/C797S; [16])	IC50 (EGFR wildtype (WT); IC50 WT, 100 μM ATP)	IC50 (EGFR wildtype (WT); [17])	Compound
57.1 nM	0.5 nM	3.6 nM	42.7 nM	255 nM	290 nM	4.8 nM	3 nM	277 nM	> 10000 nM											CC1(O)CCC(Nc2cc(Nc3ccnc(-c4cnn(C5CCCO5)c4)n3)ncc2-c2ccn(C(F)F)n2)CC1 (stereo not drawn) [Example 318, (1s,4s)-4-((5-(1-(Difluoromethyl)-1H-pyrazol-3-yl)-2-((2-(1-(tetrahydrofuran-2-yl)-1H-pyrazol-4-yl)pyrimidin-4-yl)amino)pyridin-4-yl)amino)-1-methylcyclohexan-1-ol]
2050 nM	11.7 nM	19.2 nM	291 nM	327 nM																CC(=O)N1CC=C(c2nccc(Nc3cc(N[C@H]4CC[C@@](C)(O)CC4)c(-c4ccn(C(F)F)n4)cn3)n2)CC1 [Example 159, 1-(4-(4-((5-(1-(Difluoromethyl)-1H-pyrazol-3-yl)-4-(((1s,4s)-4-hydroxy-4-methylcyclohexyl)amino)pyridin-2-yl)amino)pyrimidin-2-yl)-3,6-dihydropyridin-1(2H)-yl)ethan-1-one]
178 nM	2.2 nM	9.5 nM	14.5 nM	538 nM																CN(C)S(=O)(=O)n1ccc(-c2nccc(Nc3cc(N[C@H]4CC[C@@](C)(O)CC4)c(-c4ccn(C(F)F)n4)cn3)n2)c1 [Example 109, 3-(4-((5-(1-(Difluoromethyl)-1H-pyrazol-3-yl)-4-(((1s,4s)-4-hydroxy-4-methylcyclohexyl)amino)pyridin-2-yl)amino)pyrimidin-2-yl)-N,N-dimethyl-1H-pyrrole-1-sulfonamide]
										23.9 nM	16.7 nM	3.1 nM	0.3 nM	1.7 nM	1.2 nM	518 nM	14.4 nM	> 10000 nM	254 nM	C[C@]1(CO)C[C@@H](Nc2cc(Nc3ccnc(-c4cnn(S(=O)(=O)C5CC5)c4)n3)ncc2-c2ccn(C(F)F)n2)C1 [Example 378, ((1s,3s)-3-((2-((2-(1-(Cyclopropylsulfonyl)-1H-pyrazol-4-yl)pyrimidin-4-yl)amino)-5-(1-(difluoromethyl)-1H-pyrazol-3-yl)pyridin-4-yl)amino)-1-methylcyclobutyl)methanol]
45.1 nM	0.1 nM	0.2 nM	26.9 nM	77.7 nM	47.6 nM	0.8 nM	0.4 nM	295 nM	> 10000 nM											COCCn1cc(-c2nccc(Nc3cc(N[C@H]4CC[C@@](C)(O)CC4)c(-c4ccn(C(F)F)n4)cn3)n2)cn1 [Example 138, (1s,4s)-4-((5-(1-(Difluoromethyl)-1H-pyrazol-3-yl)-2-((2-(1-(2-methoxyethyl)-1H-pyrazol-4-yl)pyrimidin-4-yl)amino)pyridin-4-yl)amino)-1-methylcyclohexan-1-ol]
539 nM	11.4 nM	16.6 nM	463 nM	720 nM																C[C@]1(F)CC[C@@H](Nc2cc(Nc3ccnc(-c4cnn(S(=O)(=O)C5CC5)c4)n3)ncc2-c2ccn(C(F)F)n2)CC1 [Example 220, N^2-(2-(1-(Cyclopropylsulfonyl)-1H-pyrazol-4-yl)pyrimidin-4-yl)-5-(1-(difluoromethyl)-1H-pyrazol-3-yl)-N^4-((1s,4s)-4-fluoro-4-methylcyclohexyl)pyridine-2,4-diamine]
